Results taken from patent publication US10941157B2, “Pesticidal compositions and uses thereof” (Gilead Apollo, LLC, priority 2015, dated 2021).
Converted amounts (≈) assume the structure as drawn. Read-outs that look alike come from different tables or passages of the source.

Experiments:
Format in all cases: cell-based
[1] = test system: Botrtyis cinerea (Bc); test: In vitro pathogen growth inhibition assay, Bc; settings: 48 h
In short: (§1)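 Value reported is the compound concentration reaching ≥90% growth inhibition, from OD readings at 24 and 48 h after blank subtraction, confirmed visually. Inoculum was spores diluted in 17% V8 medium, except Rs, using 1.5 mm mycelial plugs in ¼ PDB; actual compound concentration corrected via OD600.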

[2] = test system: Collectotrichum graminicola (Cg); test: In vitro pathogen growth inhibition assay, Cg; settings: 48 h
In short: as §1

[3] = test system: Diplodia maydis (Dm); test: In vitro pathogen growth inhibition assay, Dm; settings: Stenocarpella maydis, 48 h
In short: as §1

[4] = test system: Fusarium moniliforme (Fm); test: In vitro pathogen growth inhibition assay, Fm; settings: Fusarium verticillioides
In short: as §1

[5] = test system: Fusarium virguliforme (Fv); test: In vitro pathogen growth inhibition assay, Fv
In short: as §1

[6] = test system: Phytophthora capsici (Pc); test: In vitro pathogen growth inhibition assay, Pc; settings: 48 h
In short: as §1

[7] = test system: Rhizoctonia solani (Rs); test: In vitro pathogen growth inhibition assay, Rs (mycelial plugs); settings: Rhizoctonia solani, 48 h
In short: as §1

[8] = test system: Septoria tritici (St); test: In vitro pathogen growth inhibition assay, St; settings: Zymoseptoria tritici, 48 h
In short: as §1

[9] = ≥90% growth inhibition, 48 hours, vs 2% DMSO control, read-out: Compound Concentration (ppm) sufficient for ≥90% inhibition of Bc
[10] = ≥90% growth inhibition, 48 hours, vs 2% DMSO control, read-out: Compound Concentration (ppm) sufficient for ≥90% inhibition of Cg
[11] = ≥90% growth inhibition, 48 hours, vs 2% DMSO control, read-out: Compound Concentration (ppm) sufficient for ≥90% inhibition of Dm
[12] = ≥90% growth inhibition, 48 hours, vs 2% DMSO control, read-out: Compound Concentration (ppm) sufficient for ≥90% inhibition of Fm
[13] = ≥90% growth inhibition, 48 hours, vs 2% DMSO control, read-out: Compound Concentration (ppm) sufficient for ≥90% inhibition of Fv
[14] = ≥90% growth inhibition, 48 hours, vs 2% DMSO control, read-out: Compound Concentration (ppm) sufficient for ≥90% inhibition of Pc
[15] = ≥90% growth inhibition, mycelial plugs, 48 hours, vs 2% DMSO control, read-out: Compound Concentration (ppm) sufficient for ≥90% inhibition of Rs
[16] = ≥90% growth inhibition, 48 hours, vs 2% DMSO control, read-out: Compound Concentration (ppm) sufficient for ≥90% inhibition of St

Row | IC90 [1, 9] | IC90 [2, 10] | IC90 [3, 11] | IC90 [4, 12] | IC90 [5, 13] | IC90 [6, 14] | IC90 [7, 15] | IC90 [8, 16] | IC90 ([1]; concentration sufficient to ≥90% inhibition of growth, 48 hours vs 2% DMSO control, read-out: Compound Concentration (ppm) for ≥90% inhibition, Bc) | IC90 ([2]; concentration sufficient to ≥90% inhibition of growth, 48 hours vs 2% DMSO control, read-out: Compound Concentration (ppm) for ≥90% inhibition, Cg) | IC90 ([3]; concentration sufficient to ≥90% inhibition of growth, 48 hours vs 2% DMSO control, read-out: Compound Concentration (ppm) for ≥90% inhibition, Dm) | IC90 ([4]; concentration sufficient to ≥90% inhibition of growth, 48 hours vs 2% DMSO control, read-out: Compound Concentration (ppm) for ≥90% inhibition, Fm) | IC90 ([5]; concentration sufficient to ≥90% inhibition of growth, 48 hours vs 2% DMSO control, read-out: Compound Concentration (ppm) for ≥90% inhibition, Fv) | IC90 ([6]; concentration sufficient to ≥90% inhibition of growth, 48 hours vs 2% DMSO control, read-out: Compound Concentration (ppm) for ≥90% inhibition, Pc) | IC90 ([7]; concentration sufficient to ≥90% inhibition of growth, 48 hours vs 2% DMSO control, read-out: Compound Concentration (ppm) for ≥90% inhibition, Rs) | IC90 ([8]; concentration sufficient to ≥90% inhibition of growth, 48 hours vs 2% DMSO control, read-out: Compound Concentration (ppm) for ≥90% inhibition, St) | SMILES
1 | 0.4 µg/mL (≈ 0.654 µM) | 2 µg/mL (≈ 3.27 µM) | 50 µg/mL (≈ 81.7 µM) | 0.08 µg/mL (≈ 0.131 µM) | 0.4 µg/mL (≈ 0.654 µM) | > 50 µg/mL | 2 µg/mL (≈ 3.27 µM) | > 50 µg/mL |  |  |  |  |  |  |  |  | COc1ccc(F)cc1[C@](C)(Cn1c(=O)n(C(C)(C)C(=O)NC(C)C)c(=O)c2c(C)c(-n3nccn3)sc21)OCCC#N [Compound I-273]
2 |  |  |  |  |  |  |  |  | 50 µg/mL (≈ 84.9 µM) | 50 µg/mL (≈ 84.9 µM) | > 50 µg/mL | 50 µg/mL (≈ 84.9 µM) | > 50 µg/mL | > 50 µg/mL | 50 µg/mL (≈ 84.9 µM) | > 50 µg/mL | COc1ccc(F)cc1[C@](O)(CCO)Cn1c(=O)n(C(C)(C)C(=O)NC(C)C)c(=O)c2c(C)c(-n3nccn3)sc21 [Compound I-275]
3 | 2 µg/mL (≈ 3.4 µM) | 2 µg/mL (≈ 3.4 µM) | 2 µg/mL (≈ 3.4 µM) | 0.4 µg/mL (≈ 0.68 µM) | 2 µg/mL (≈ 3.4 µM) | 10 µg/mL (≈ 17 µM) | 0.08 µg/mL (≈ 0.136 µM) | > 50 µg/mL |  |  |  |  |  |  |  |  | COc1ccc(F)cc1[C@@](O)(CCO)Cn1c(=O)n(C(C)(C)C(=O)NC(C)C)c(=O)c2c(C)c(-n3nccn3)sc21 [Compound I-276]
4 | 0.4 µg/mL (≈ 0.656 µM) | 0.4 µg/mL (≈ 0.656 µM) | 2 µg/mL (≈ 3.28 µM) | 0.08 µg/mL (≈ 0.131 µM) | 0.08 µg/mL (≈ 0.131 µM) | > 50 µg/mL | 0.08 µg/mL (≈ 0.131 µM) | > 50 µg/mL |  |  |  |  |  |  |  |  | Cc1c(-n2nccn2)sc2c1c(=O)n(C(C)(C)C(=O)NC(C)C)c(=O)n2C[C@H](OC(C)C)c1cc(F)ccc1CCC#N [Compound I-277]
5 | 2 µg/mL (≈ 3.12 µM) | 0.4 µg/mL (≈ 0.623 µM) | 2 µg/mL (≈ 3.12 µM) | 0.4 µg/mL (≈ 0.623 µM) | 2 µg/mL (≈ 3.12 µM) | 10 µg/mL (≈ 15.6 µM) | 0.4 µg/mL (≈ 0.623 µM) | > 50 µg/mL |  |  |  |  |  |  |  |  | Cc1c(-n2nccn2)sc2c1c(=O)n(C(C)(C)C(=O)NC(C)C)c(=O)n2C[C@H](OCC(C)(C)O)c1cc(F)ccc1OCC#N [Compound I-278]
6 | 0.08 µg/mL (≈ 0.128 µM) | 0.08 µg/mL (≈ 0.128 µM) | 2 µg/mL (≈ 3.21 µM) | 0.08 µg/mL (≈ 0.128 µM) | 0.08 µg/mL (≈ 0.128 µM) | > 50 µg/mL | 0.08 µg/mL (≈ 0.128 µM) | > 50 µg/mL |  |  |  |  |  |  |  |  | CCc1ccc(F)cc1[C@H](Cn1c(=O)n(C(C)(C)C(=O)NC(C)C)c(=O)c2c(C)c(-n3nccn3)sc21)OCC(C)(C)C#N [Compound I-279]
7 | 2 µg/mL (≈ 3.26 µM) | 2 µg/mL (≈ 3.26 µM) | 2 µg/mL (≈ 3.26 µM) | 0.08 µg/mL (≈ 0.131 µM) | 0.4 µg/mL (≈ 0.653 µM) | 50 µg/mL (≈ 81.6 µM) | 0.08 µg/mL (≈ 0.131 µM) | ≥ 50 µg/mL |  |  |  |  |  |  |  |  | CCc1ccc(F)cc1[C@H](Cn1c(=O)n(C(C)(C)C(=O)NC(C)C)c(=O)c2c(C)c(-n3nccn3)sc21)O[C@H]1C[C@@H](O)C1 [Compound I-280]
8 | 2 µg/mL (≈ 3.43 µM) | 2 µg/mL (≈ 3.43 µM) | ≥ 10 µg/mL | 0.4 µg/mL (≈ 0.685 µM) | 2 µg/mL (≈ 3.43 µM) | 10 µg/mL (≈ 17.1 µM) | 0.4 µg/mL (≈ 0.685 µM) | > 50 µg/mL |  |  |  |  |  |  |  |  | Cc1c(-n2nccn2)sc2c1c(=O)n(C(C)(C)C(=O)NC(C)C)c(=O)n2C[C@H](OCCC#N)c1cc(F)ccc1O [Compound I-282]
9 | 10 µg/mL (≈ 17.2 µM) | 50 µg/mL (≈ 85.8 µM) | > 50 µg/mL | 2 µg/mL (≈ 3.43 µM) | 10 µg/mL (≈ 17.2 µM) | > 50 µg/mL | 2 µg/mL (≈ 3.43 µM) | > 50 µg/mL |  |  |  |  |  |  |  |  | Cc1c(-n2cccn2)sc2c1c(=O)n(C(C)(C)C(=O)NC(C)C)c(=O)n2C[C@H](OCCC#N)c1cc(F)ccc1O [Compound I-283]
10 | 2 µg/mL (≈ 3.08 µM) | 2 µg/mL (≈ 3.08 µM) | ≥ 50 µg/mL | 2 µg/mL (≈ 3.08 µM) | 2 µg/mL (≈ 3.08 µM) | ≥ 50 µg/mL | 2 µg/mL (≈ 3.08 µM) | > 50 µg/mL |  |  |  |  |  |  |  |  | COc1ccc(F)cc1[C@H](Cn1c(=O)n(C(C)(C)C(=O)NC(C)C)c(=O)c2c(C)c(-n3cccn3)sc21)OCCS(C)(=O)=O [Compound I-286]
11 | 2 µg/mL (≈ 3.51 µM) | 10 µg/mL (≈ 17.6 µM) | ≥ 10 µg/mL | 0.4 µg/mL (≈ 0.702 µM) | 10 µg/mL (≈ 17.6 µM) | > 50 µg/mL | 2 µg/mL (≈ 3.51 µM) | > 50 µg/mL |  |  |  |  |  |  |  |  | CCNC(=O)[C@H](C)n1c(=O)c2c(C)c(-n3nccn3)sc2n(C[C@H](OCCC#N)c2cc(F)ccc2OC)c1=O [Compound I-290]
